Laboratory results reported in patent US9121806B1, “Impedance spectroscopy-based cellular analysis device” (University of South Florida, priority 2007, dated 2015).

Test system: OvCa429 cells
Assay: Effect of trypsin on confluent OvCa429 cell culture monitored by impedance phase angle mapping
Format: cell-based
Conditions: 20 μl of trypsin added to culture medium after 5 h of monitoring, approximately 80% confluence, monitored over 18 h
Procedure: Ovarian cancer line OvCa429 were grown in M199 and MCDB 105 (1:1) (Sigma, St Louis, Mo.) supplemented with 10% fetal calf serum (Sigma), 2 mM L-glutamine, 100 units ml-1 penicillin and 100 μgml-1 streptomycin under 5% CO2, and 37 .C high-humidity atmosphere. The cell culture medium was changed every 2-3 days, depending on the rate of cell growth. Cells were sub-cultured using 1× trypsin solution directly on the multielectrode device Impedance data were taken at room temperature of about 22° C. After each recording the cells were placed back in to the incubator. The cell culture medium was not changed throughout the course of the experiment. Impedance measurements were recorded on two separate devices (control and variable) beginning at approximately 80% confluence of the OvCa culture. After 5 h of recording measurements at an interval of approximately 1 h, 20 μl of trypsin was added to the cell culture medium of variable. Trypsin was not added to the control. The impedance was recorded under room conditions and the devices were placed back in the incubator after each measurement frame.
In order to affirm the utility of impedance mapping for tracking physiological changes, the effect of trypsin on the confluent cell culture was analyzed. […] FIG. 6 is the phase angle mapping of control and trypsinized cultures monitored over a period of 18 h.

Substance: trypsin
- effect of trypsin on the confluent cell culture (phase angle shape / cell detachment): detached the cells from the substrate
